Laboratory results: ChEMBL document CHEMBL6109134, “Discovery of AMG 193, an MTA-Cooperative PRMT5 Inhibitor for the Treatment of MTAP-Deleted Cancers” (J Med Chem, 2025)
Converted amounts (≈) assume the structure as drawn.

Experiments:
[1] = Unbound clearance in Beagle dog at 0.5 mg/kg, iv; type: ADME, organism-based, Canis lupus familiaris; settings: in vivo
[2] = target: T1, Voltage-gated inwardly rectifying potassium channel KCNH2 (Homo sapiens, UniProt Q12809); experiment: Inhibition of human ERG by QPatch clamp method
[3] = target: Protein arginine N-methyltransferase 5 (Homo sapiens) (UniProt O14744); experiment: In vivo inhibition of PRMT5 in athymic nude mouse xenografted with MTAP-deleted human HCT-116 cells assessed as decrease in SDMA level in tumor at 10 mg/kg, po administered once daily for 4 days and measured 4 hrs post last dose by ELISA relative to control; type: functional, organism-based; settings: time 4.0 day
[4] = Unbound clearance in Sprague-Dawley rat at 0.5 mg/kg, iv; type: ADME, organism-based; settings: in vivo
[5] = target: Protein arginine N-methyltransferase 5 (Homo sapiens) (UniProt O14744); experiment: In vivo inhibition of PRMT5 in female athymic nude mouse xenografted with MTAP-deleted human U-87 MG cells assessed as decrease in SDMA level in tumor at 30 mg/kg, po administered once daily for 14 days and measured 2 to 8 hrs post last dose by ELISA relative to control; type: functional, organism-based; settings: time 338-344 hrs
[6] = target: Protein arginine N-methyltransferase 5 (Homo sapiens) (UniProt O14744); experiment: Selectivity ratio of dissociation rate for binding affinity to PRMT5 (unknown origin) in presence of SAM to dissociation rate for binding affinity to PRMT5 (unknown origin) in presence of MTA
[7] = Metabolic stability in human hepatocytes assessed as intrinsic clearance measured per 10^6 cells; type: ADME, cell-based, Hepatocyte; settings: read-out: CLH
[8] = target: T1, Voltage-gated inwardly rectifying potassium channel KCNH2; experiment: Inhibition of human ERG by binding assay
Cytochrome P450 3A4 = Cytochrome P450 3A4 (Homo sapiens, UniProt P08684); experiment: Inhibition of CYP3A4 (unknown origin)
[9] = Toxicity in female rat up to 25 mg/kg, po administered as single dose for 14 days; type: organism-based; settings: in vivo, 336 h, time 14 day
HCT-116 [10] = experiment: Antitumor activity against MTAP-deleted human HCT-116 cells xenografted in female athymic nude mouse model assessed as tumor growth inhibition at 3 mg/kg, po administered once daily for 14 days relative to control; type: functional; settings: HCT-116, 336 h, time 14 day, read-out: TGI
[11] = Solubility of compound in SIF at pH 6.8
[12] = Drug uptake in plasma of athymic nude mouse xenografted with MTAP-deleted human BXPC-3 cells at 10 to 100 mg/kg, po administered once daily for 26 days and measured 24 hrs post last dose by LC-SRM/MS analysis; type: ADME, organism-based; settings: in vivo, 648 h, dose 10-100 mg/kg, time 27 day
[13] = Antitumor activity against MTAP-deleted human U-87 MG cells xenografted in female athymic nude mouse model assessed as tumor growth inhibition at 30 mg/kg, po administered once daily for 14 days and measured 24 hrs post last dose relative to control; type: functional, U-87MG ATCC; settings: 360 h, time 15 day, read-out: TGI
[14] = Unbound CSF-to-plasma concentration ratio in male Sprague-Dawley rat at 75 mg/kg, po administered as single dose; type: ADME, organism-based
[15] = Unbound brain-to-plasma concentration ratio in female Sprague-Dawley rat at 75 mg/kg, po administered as single dose; type: ADME, organism-based; settings: read-out: K(p,uu,brain)
[16] = target: T2, Broad substrate specificity ATP-binding cassette transporter ABCG2 (Homo sapiens, UniProt Q9UNQ0); experiment: Effect on BCRP (unknown origin)-mediated transport up to 10 uM
T2 sequence (Q9UNQ0 whole entry): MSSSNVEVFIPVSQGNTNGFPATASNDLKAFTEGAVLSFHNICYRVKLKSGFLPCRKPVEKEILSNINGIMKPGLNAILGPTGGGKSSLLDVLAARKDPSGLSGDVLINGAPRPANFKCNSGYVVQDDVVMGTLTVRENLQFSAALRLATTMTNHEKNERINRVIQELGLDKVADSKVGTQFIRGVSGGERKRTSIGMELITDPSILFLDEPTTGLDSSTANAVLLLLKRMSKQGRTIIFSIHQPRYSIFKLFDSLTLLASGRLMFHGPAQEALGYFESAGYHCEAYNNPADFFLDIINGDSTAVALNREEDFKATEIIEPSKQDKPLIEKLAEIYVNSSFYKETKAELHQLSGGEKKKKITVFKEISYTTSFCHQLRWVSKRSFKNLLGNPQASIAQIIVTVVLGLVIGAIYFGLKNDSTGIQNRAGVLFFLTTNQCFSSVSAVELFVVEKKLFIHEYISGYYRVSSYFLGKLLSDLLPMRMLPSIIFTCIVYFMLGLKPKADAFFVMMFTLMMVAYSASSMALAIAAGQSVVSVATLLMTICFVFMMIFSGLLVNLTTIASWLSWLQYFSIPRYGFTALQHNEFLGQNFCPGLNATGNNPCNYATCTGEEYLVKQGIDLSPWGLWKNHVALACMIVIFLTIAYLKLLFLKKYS

[17] = target: Protein arginine N-methyltransferase 5 (Homo sapiens) (UniProt O14744); experiment: In vivo inhibition of PRMT5 in female athymic nude mouse xenografted with MTAP-deleted human U-87 MG cells assessed as decrease in SDMA level in tumor at 100 mg/kg, po administered once daily for 14 days and measured 2 to 8 hrs post last dose by ELISA relative to control; type: functional, organism-based; settings: time 338-344 hrs
[18] = Unbound CSF-to-plasma concentration ratio in male Sprague-Dawley rat at 25 mg/kg, po administered as single dose; type: ADME, organism-based
[19] = Metabolic stability in mouse hepatocytes assessed as intrinsic clearance measured per 10^6 cells; type: ADME, cell-based, Hepatocyte; settings: read-out: CLH
[20] = Toxicity in female athymic nude mouse xenografted with human HCT-116 cells harboring wildtype MTAP assessed as body weight change at 3 to 100 mg/kg, po administered once daily for 14 days; type: organism-based; settings: in vivo, 336 h, dose 3-100 mg/kg, time 14 day
[21] = Toxicity in female athymic nude mouse xenografted with MTAP-deleted human U-87 MG cells assessed as effect on body weight at 10 to 100 mg/kg, po administered once daily for 14 days; type: organism-based; settings: in vivo, 336 h, dose 10-100 mg/kg, time 14 day
[22] = Metabolic stability in rat hepatocytes assessed as intrinsic clearance measured per 10^6 cells; type: ADME, cell-based, Hepatocyte; settings: read-out: CLH
[23] = Protein binding in dog plasma assessed as unbound fraction by ultracentrifugation
[24] = Unbound brain-to-plasma concentration ratio in male Sprague-Dawley rat at 75 mg/kg, po administered as single dose; type: ADME, organism-based; settings: read-out: K(p,uu,brain)
HCT-116 [25] = experiment: Antitumor activity against MTAP-deleted human HCT-116 cells xenografted in female athymic nude mouse model assessed as tumor growth inhibition at 10 mg/kg, po administered once daily for 14 days relative to control; type: functional; settings: HCT-116, 336 h, time 14 day, read-out: TGI
Cytochrome P450 2C9 = Cytochrome P450 2C9 (Homo sapiens, UniProt P11712); experiment: Inhibition of CYP2C9 (unknown origin)
[26] = target: Protein arginine N-methyltransferase 5 (Homo sapiens) (UniProt O14744); experiment: In vivo inhibition of PRMT5 in athymic nude mouse xenografted with human HCT-116 cells harboring wildtype MTAP assessed as decrease in SDMA level in tumor at 3 mg/kg, po administered once daily for 4 days and measured 4 hrs post last dose by ELISA relative to control; type: functional, organism-based; settings: time 4.0 day
[27] = Metabolic stability in dog liver microsomes assessed as intrinsic clearance; type: ADME, Canis lupus familiaris, Microsome; settings: read-out: CLH
[28] = Protein binding in rat plasma assessed as unbound fraction by ultracentrifugation

Protein arginine N-methyltransferase 5 (Homo sapiens), sequence (O14744 whole entry): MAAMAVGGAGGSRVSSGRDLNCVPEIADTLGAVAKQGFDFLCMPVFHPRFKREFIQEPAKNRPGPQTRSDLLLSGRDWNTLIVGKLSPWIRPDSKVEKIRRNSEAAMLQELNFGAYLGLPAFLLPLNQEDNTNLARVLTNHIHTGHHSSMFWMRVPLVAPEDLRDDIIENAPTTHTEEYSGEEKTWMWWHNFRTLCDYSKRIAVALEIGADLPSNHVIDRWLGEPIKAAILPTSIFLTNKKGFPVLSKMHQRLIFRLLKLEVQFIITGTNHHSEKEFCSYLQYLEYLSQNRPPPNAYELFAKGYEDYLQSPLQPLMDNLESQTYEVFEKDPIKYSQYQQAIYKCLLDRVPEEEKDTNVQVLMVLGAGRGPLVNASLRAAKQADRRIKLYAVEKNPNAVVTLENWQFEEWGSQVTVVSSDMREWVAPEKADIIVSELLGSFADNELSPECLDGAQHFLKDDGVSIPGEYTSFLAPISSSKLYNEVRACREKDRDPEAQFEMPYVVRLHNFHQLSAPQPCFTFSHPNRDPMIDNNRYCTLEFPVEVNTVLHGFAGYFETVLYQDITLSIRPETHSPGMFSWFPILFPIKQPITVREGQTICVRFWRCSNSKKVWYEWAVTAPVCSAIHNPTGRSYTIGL
T1 sequence (Q12809 whole entry): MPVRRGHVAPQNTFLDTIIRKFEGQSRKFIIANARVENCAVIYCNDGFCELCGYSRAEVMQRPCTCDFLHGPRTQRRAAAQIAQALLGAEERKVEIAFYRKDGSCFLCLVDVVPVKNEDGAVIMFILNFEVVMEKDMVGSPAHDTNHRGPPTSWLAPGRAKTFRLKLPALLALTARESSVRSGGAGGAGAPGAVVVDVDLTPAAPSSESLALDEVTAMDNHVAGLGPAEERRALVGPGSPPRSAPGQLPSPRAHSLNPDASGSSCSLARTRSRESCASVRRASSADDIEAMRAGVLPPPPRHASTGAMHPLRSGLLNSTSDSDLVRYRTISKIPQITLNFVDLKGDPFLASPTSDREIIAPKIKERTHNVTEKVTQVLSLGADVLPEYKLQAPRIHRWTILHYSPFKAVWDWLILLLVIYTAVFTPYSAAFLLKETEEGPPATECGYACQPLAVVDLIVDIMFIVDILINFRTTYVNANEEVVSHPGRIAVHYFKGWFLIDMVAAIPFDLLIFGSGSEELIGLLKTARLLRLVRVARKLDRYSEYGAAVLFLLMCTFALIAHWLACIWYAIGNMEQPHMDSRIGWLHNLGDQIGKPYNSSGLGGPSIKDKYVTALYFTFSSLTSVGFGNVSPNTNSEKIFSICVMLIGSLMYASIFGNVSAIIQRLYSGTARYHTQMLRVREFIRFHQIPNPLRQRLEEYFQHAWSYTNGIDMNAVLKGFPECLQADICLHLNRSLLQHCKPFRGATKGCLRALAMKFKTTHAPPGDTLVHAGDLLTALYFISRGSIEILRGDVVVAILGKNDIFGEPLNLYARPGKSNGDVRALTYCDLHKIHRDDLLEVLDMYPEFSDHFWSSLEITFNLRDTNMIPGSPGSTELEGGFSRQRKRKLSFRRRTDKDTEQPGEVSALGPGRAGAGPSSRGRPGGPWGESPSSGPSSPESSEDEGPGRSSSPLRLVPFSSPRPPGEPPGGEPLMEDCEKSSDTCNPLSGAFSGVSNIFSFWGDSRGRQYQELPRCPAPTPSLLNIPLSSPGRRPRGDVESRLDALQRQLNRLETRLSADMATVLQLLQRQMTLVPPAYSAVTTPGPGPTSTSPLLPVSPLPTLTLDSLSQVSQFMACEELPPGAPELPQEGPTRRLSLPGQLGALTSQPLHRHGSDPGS
Cytochrome P450 3A4, sequence (P08684 whole entry): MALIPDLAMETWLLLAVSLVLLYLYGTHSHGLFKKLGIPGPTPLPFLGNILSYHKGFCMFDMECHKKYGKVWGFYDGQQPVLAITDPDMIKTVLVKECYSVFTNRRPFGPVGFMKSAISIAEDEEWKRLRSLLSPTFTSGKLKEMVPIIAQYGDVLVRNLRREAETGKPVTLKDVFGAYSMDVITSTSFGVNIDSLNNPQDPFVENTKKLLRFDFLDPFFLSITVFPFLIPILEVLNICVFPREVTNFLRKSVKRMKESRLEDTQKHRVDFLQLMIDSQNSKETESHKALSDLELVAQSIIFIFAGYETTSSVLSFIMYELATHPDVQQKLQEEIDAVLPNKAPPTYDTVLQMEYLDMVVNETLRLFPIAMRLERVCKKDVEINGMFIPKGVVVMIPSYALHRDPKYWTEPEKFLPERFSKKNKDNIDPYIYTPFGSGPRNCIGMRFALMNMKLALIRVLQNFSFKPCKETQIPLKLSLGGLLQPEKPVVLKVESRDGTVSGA
Cytochrome P450 2C9, sequence (P11712 whole entry): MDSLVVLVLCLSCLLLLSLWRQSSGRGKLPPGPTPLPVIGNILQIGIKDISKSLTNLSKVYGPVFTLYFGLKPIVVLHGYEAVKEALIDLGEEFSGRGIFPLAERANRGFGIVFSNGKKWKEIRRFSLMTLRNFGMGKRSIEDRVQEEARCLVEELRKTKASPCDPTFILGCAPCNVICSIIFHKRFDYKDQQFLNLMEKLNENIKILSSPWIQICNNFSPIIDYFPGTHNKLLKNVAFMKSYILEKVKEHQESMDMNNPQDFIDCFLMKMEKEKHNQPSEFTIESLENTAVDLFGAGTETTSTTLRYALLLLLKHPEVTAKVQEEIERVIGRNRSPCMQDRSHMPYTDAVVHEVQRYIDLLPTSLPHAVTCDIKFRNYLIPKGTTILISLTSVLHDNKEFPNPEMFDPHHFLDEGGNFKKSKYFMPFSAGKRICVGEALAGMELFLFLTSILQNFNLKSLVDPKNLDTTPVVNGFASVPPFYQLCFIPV

CL free [1]: 50 mL/min/kg
inhibition [3]: 73%
CL free [4]: 283 mL/min/kg
inhibition [5]: 77%
Selectivity ratio [6]: 60
hepatocyte CLint [7]: 6 µL/min/1e6 cells
IC50 (Cytochrome P450 3A4): 124 µM
solubility [11]: 335 µM (≈ 149 µg/mL)
Drug uptake [12]: Active
Kp uu [14]: 0.13
Kp uu [15]: 0.12
Activity [16]: Not_active
inhibition [17]: 83%
Kp uu [18]: 0.24
hepatocyte CLint [19]: 13 µL/min/1e6 cells
hepatocyte CLint [22]: 31 µL/min/1e6 cells
fraction unbound [23]: 0.08
Kp uu [24]: 0.15
IC50 (Cytochrome P450 2C9): 59 µM
inhibition [26]: 12%
microsomal CLint [27]: 14 µL/min/mg
fraction unbound [28]: 0.1
Structure (SMILES): Nc1nc2cnc(C(=O)N3CCOC[C@@H]3c3ccc(C(F)(F)F)cc3)cc2c2c1COC2
IC50 [2]: > 30 µM
IC50 [8]: > 29 µM
Activity [9]: Non-toxic
inhibition in vivo at 3 mg/kg (HCT-116 [10]): 54%
inhibition in vivo at 30 mg/kg [13]: 57%
Activity [20]: Non-toxic
Activity [21]: Non-toxic
inhibition in vivo at 10 mg/kg (HCT-116 [25]): 55%
